# Results as given in article PMC4979471 (Cell Death Discovery, 2015).
# Read-outs that look alike come from different tables or passages of the source.
# Tests used:
# Assay in all cases: Kinase selectivity, P33-radiolabeled assay
# Assay type in all cases: biochemical
# Conditions in all cases: 10 μM ATP
# [1] = target: T1, CK1g2 (Homo sapiens, UniProt P78368)
# T1 construct: purchased Reaction Biology Corp
# Outline: (§1)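 Values show % enzyme activity normalised to DMSO vehicle. They come from one 10 μM compound concentration run twice, at an ATP level of 10 μM.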
# [2] = target: T2, IKKa/CHUK (Homo sapiens, UniProt O15111)
# T2 construct: purchased Reaction Biology Corp
# T2 sequence (O15111 1-745): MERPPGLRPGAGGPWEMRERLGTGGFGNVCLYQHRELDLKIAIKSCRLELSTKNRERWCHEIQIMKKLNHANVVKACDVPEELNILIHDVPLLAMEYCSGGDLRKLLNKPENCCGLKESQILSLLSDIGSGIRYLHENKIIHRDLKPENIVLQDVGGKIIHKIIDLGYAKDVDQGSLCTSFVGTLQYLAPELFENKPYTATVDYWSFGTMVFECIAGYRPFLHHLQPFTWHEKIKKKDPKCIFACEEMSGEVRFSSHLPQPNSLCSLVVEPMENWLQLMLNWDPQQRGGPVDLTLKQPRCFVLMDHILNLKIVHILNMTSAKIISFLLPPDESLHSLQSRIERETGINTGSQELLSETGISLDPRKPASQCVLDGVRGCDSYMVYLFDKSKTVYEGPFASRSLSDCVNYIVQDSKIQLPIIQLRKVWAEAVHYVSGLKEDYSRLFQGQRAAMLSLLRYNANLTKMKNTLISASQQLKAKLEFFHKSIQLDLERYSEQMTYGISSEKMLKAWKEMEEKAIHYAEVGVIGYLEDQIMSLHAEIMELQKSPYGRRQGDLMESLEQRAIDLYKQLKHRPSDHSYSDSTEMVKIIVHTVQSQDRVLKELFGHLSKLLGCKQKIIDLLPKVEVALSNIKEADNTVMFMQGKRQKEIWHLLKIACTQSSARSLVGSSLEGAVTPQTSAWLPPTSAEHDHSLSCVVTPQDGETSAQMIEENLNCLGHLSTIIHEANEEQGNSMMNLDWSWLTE
# Outline: as §1
# [3] = target: T3, PKCiota (Homo sapiens, UniProt P41743)
# T3 construct: purchased Reaction Biology Corp
# T3 sequence (P41743 1-596): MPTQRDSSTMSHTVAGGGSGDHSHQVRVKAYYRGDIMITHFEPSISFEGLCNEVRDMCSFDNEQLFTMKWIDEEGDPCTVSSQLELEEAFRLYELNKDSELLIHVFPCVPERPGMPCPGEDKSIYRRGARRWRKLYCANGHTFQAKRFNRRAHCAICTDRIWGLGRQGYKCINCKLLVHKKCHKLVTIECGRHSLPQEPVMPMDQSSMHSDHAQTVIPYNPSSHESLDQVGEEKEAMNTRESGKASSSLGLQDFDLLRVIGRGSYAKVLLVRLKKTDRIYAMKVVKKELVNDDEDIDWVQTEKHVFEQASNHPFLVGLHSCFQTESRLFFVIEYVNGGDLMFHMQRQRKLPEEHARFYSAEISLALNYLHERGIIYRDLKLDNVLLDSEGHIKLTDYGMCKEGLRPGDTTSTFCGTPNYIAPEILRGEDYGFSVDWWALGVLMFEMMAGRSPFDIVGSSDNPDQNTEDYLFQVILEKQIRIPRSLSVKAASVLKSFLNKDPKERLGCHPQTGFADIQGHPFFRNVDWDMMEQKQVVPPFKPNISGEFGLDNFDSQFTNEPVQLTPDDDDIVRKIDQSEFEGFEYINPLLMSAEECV
# Outline: as §1
# [4] = target: T4, TAOK2/TAO1 (Homo sapiens, UniProt Q9UL54)
# T4 construct: purchased Reaction Biology Corp
# T4 sequence (Q9UL54 1-1235): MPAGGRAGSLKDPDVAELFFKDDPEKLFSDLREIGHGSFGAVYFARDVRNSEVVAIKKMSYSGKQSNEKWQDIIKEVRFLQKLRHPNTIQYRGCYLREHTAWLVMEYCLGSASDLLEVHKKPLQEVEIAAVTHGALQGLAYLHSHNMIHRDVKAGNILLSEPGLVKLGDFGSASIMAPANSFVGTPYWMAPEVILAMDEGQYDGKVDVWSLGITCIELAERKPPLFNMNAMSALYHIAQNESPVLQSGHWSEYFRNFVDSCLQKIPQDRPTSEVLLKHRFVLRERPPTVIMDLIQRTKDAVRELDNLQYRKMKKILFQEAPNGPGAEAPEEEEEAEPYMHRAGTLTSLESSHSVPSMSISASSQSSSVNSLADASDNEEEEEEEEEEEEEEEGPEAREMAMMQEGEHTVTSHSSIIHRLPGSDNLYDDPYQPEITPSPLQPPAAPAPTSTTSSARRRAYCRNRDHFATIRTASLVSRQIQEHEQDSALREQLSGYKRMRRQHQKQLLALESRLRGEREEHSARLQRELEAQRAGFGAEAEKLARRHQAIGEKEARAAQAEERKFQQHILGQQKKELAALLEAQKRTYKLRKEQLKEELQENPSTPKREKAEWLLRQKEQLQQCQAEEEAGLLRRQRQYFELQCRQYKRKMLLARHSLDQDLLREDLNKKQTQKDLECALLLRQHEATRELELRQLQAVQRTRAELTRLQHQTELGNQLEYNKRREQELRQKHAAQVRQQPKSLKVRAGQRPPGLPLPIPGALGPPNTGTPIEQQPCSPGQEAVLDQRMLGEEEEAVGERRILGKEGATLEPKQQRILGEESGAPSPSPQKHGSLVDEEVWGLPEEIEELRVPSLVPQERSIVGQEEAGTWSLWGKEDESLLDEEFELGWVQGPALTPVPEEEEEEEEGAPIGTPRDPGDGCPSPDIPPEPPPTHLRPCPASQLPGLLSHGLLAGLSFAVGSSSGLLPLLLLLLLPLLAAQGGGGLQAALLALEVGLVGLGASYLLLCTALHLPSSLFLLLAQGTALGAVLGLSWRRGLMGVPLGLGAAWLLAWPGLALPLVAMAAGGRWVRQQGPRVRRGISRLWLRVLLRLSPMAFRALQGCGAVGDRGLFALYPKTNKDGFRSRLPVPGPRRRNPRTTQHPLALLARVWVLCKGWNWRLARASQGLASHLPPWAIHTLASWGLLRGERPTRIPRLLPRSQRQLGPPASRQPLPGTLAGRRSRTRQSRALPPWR
# Outline: as §1
# [5] = target: T5, c-Src (Homo sapiens, UniProt P12931)
# T5 construct: purchased Reaction Biology Corp
# Outline: as §1
# [6] = read-out: % Enzyme Activity (relative to DMSO controls) AVG
# [7] = read-out: % Enzyme Activity (relative to DMSO controls) Data 1
# [8] = read-out: % Enzyme Activity (relative to DMSO controls) Data 2
# T1 sequence (P78368 whole entry): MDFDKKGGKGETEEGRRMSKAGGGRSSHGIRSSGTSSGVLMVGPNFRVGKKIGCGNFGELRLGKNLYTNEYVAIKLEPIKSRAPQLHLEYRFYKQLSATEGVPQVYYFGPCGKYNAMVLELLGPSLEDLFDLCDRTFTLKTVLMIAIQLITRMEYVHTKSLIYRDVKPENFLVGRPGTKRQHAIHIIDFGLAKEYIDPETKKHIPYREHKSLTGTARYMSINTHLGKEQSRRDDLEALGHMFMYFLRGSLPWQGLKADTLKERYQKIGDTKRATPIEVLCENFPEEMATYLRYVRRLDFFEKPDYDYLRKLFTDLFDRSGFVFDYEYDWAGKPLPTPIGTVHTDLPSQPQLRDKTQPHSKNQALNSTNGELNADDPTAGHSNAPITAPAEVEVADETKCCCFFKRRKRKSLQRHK
# T5 sequence (P12931 whole entry): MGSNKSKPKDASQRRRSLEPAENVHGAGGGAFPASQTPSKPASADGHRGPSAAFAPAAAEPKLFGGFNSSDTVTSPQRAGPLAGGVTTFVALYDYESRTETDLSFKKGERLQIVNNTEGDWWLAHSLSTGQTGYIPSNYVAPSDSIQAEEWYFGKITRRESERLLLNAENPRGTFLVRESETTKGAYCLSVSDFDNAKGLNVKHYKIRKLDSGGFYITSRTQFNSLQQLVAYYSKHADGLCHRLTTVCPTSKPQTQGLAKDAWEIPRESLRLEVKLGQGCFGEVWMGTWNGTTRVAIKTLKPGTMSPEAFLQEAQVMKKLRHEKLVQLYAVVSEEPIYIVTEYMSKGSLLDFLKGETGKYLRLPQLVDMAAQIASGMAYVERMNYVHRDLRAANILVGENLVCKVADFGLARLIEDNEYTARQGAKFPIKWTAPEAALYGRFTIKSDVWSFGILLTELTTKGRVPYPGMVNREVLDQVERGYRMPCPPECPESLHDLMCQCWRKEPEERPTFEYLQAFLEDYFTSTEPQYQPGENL
smiles,measurement,setting,value
CC(C)(C)C(=O)N1N=CC[C@H]1c1ccccc1 [GSK′963],remaining activity at 10 µM,[1]; [6],112%
same,remaining activity at 10 µM,[1]; [7],112%
same,remaining activity at 10 µM,[1]; [8],111%
same,remaining activity at 10 µM,[2]; [6],89.5%
same,remaining activity at 10 µM,[2]; [7],91.1%
same,remaining activity at 10 µM,[2]; [8],88%
same,remaining activity at 10 µM,[3]; [6],109%
same,remaining activity at 10 µM,[3]; [7],105%
same,remaining activity at 10 µM,[3]; [8],114%
same,remaining activity at 10 µM,[4]; [6],95.6%
same,remaining activity at 10 µM,[4]; [7],97%
same,remaining activity at 10 µM,[4]; [8],94.2%
same,remaining activity at 10 µM,[5]; [6],109%
same,remaining activity at 10 µM,[5]; [7],112%
same,remaining activity at 10 µM,[5]; [8],106%
